How the values were obtained:
Format in all cases: cell-based
[1] = system: MES-SA Dx5; experiment: p-Histone H3 assay (ArrayScan VTi); conditions: Homo sapiens, 24 h; MES-SA Dx5, Uterine, Doxorubicin-selected, P-gp overexpressing
Method: (§1) MES-SA Dx5 and MES-SA cells were plated at a density of 10,000 cells/well onto 96-well plate in complete media and cultured for 24 hours. […] Cells were washed and fixed by adding 100 μL of 2× formaldehyde fixation buffer for 10 minutes and room temperature. […] Cells were immunostained with p-histone H3 antibody (5 μg/mL) and incubated at room temperature for 2 hours. Cells were washed in 100 μL of wash buffer. Next, cells were incubated with a goat anti-rabbit alexa-488 conjugated antibody (1.5 μg/mL) in wash buffer supplemented with Hoechest DNA dye (1 μg/mL) and incubated at room temperature in the dark for 30 minutes. Cells were washed twice with 100 μL of wash buffer. The 96-well plates were analyzed on an ArrayScan VTi (Cellomics) using a bioapplication algorithm (TargetActivation.V2). […] Cells were then fixed and stained with p-histone H3 antibody and counterstained with a DNA dye (Hoechest). Imaging-based analysis (ArrayScan VTi) was performed to measure the percentage of p-histone H3 positive cells. The dose-response curves represent either AMG 900 or taxol concentrations plotted against p-Histone H3 positive cells as a percentage of DMSO-treated control (POC). The EC50 values were calculated by 4-parameter fit model.

[2] = system: MES-SA; experiment: p-Histone H3 assay (ArrayScan VTi); conditions: Homo sapiens, 24 h, Uterine, Parent line
Method: as §1

[3] = system: NCI-H460-Taxol-r; experiment: Cell cycle DNA content assay (flow cytometry); conditions: Homo sapiens, 24 h, Lung, Paclitaxel-selected, read-out: EC50 @ 24 hours, ≧4N DNA content
Method: NCI-H460 parental and NCI-H460 taxol-resistant cells were seeded at a density of 500,000 cells/well in a 6-well plate in 2 mL of appropriate complete media. The next day cells were treated with AMG 900 or taxol over a 6-point concentration range with a final DMSO concentration of 0.05% in media. After 24 hours, cells were pulsed with BrdU (1:100 dilution) and harvested. Cells were centrifuged at 1600 rpm for 4 minutes and the supernatant was aspirated. Cells were washed in 1× PBS and fixed in 900 μL of ice cold 90% methanol and stored at −20° C. Fixed cells were centrifuged at 2000 rpm for 4 minutes to remove 90% methanol. Cells were washed with 200 μL of wash buffer and stained with 200 μL of propidium iodide (PI) overnight at 4° C. in the dark. Data was acquired and analyzed by flow cytomety (LSRII). A threshold gate was applied according to +4N (same as ≧4N) DNA content and SubG1 positive populations based on DMSO-treated control and low/high drug-treated groups. The data was represented as a percentage of +4N DNA and SubG1 positive subpopulations. The +4N (same as ≧4N) DNA content or SubG1 cellular EC50 values were calculated using a 4-parameter equation. Lung tumor cell lines were treated with control (DMSO), AMG 900 or taxol over a 6-point dose range for 24 hours. Flow cytometric-based cell cycle analysis was performed to measure the percentage of ≧4N DNA content or SubG1 DNA content positive cells. The dose-response curves for AMG 900 represent the drug concentration plotted against the percentage of ≧4N DNA content positive cells. The dose-response curves for taxol represent the drug concentration plotted against the percentage of SubG1 DNA content positive cells. The EC50 values were calculated by 4-parameter fit model.

[4] = system: 32 human tumor cell lines; experiment: Antiproliferative effect across tumor cell line panel (summary); conditions: across solid and hematologic tumor cell lines (Tables 1 and 2)
Method: Tumor cells were seeded in a Packard View 96-well plate in 100 μL of appropriate complete media at a density of 3000 or 5000 cells/well depending on the cell line growth kinetics (broadly defined as slow vs. fast). All dilutions were performed using Biomek FX workstation. The next day cells were treated with AMG 900 (11-point dose range 0.156 to 0.0003 μM) with a final DMSO concentration of 0.12% in media. After 24 hours, the media containing compound was removed and the cells were washed with complete media. The cells were then incubated in 100 μL of fresh complete media (without compound) for 48 hours. After 48 hours, the cells were fixed by adding 100 μL of fixation buffer to 100 μL of complete media. […] Quantification of individual cell nuclear area and intensity was performed based on Hoechst 33342 DNA dye fluorescence. A threshold on the nuclear area based on the DMSO-treated control well was set to quantify the number of normal size nuclei from nuclear debris and polyploidy cells. […] The dose-concentration curves and EC50 values were calculated using a 4-parameter equation.
Tumor cells were seeded in a 300 μL deep 96-well plate in 150 μL of appropriate complete media at a density of 100,000 cells/well. […] Data was acquired and analyzed by flow cytometer (LSRII). […] The concentration-response curves and EC50 values were calculated using a 4-parameter equation.

- EC50 [1]: < 2 nM
- EC50 [2]: < 2 nM
- EC50 [3]: 1 nM
- EC50 [4]: 1 to 5 nM
SMILES: Cc1csc(-c2nnc(Nc3ccc(Oc4ncccc4-c4ccnc(N)n4)cc3)c3ccccc23)c1 [AMG 900, N-(4-((3-(2-amino-4-pyrimidinyl)-2-pyridinyl)oxy)phenyl)-4-(4-methyl-2-thienyl)-1-phthalazinamine]

Source: US20120028917A1, “Use Of N-(4-((3-(2-Amino-4-Pyrimidinyl)-2-Pyridinyl)Oxy)Phenyl)-4-(4-Methyl-2-Thienyl)-1-Phthalazinamine In The Treatment Of Antimitotic Agent Resistant Cancer” (Amgen Inc., priority 2009, published 2012)
